Experimental data: US8921267B2, “Safening 6-(trisubstituted phenyl)-4-amino-2-pyridinecarboxylate herbicide injury on cereal crops” (Dow AgroSciences LLC, priority 2008, dated 2014)

How the values were obtained:
barley (HORVW) = assay: Postemergence herbicidal safening, greenhouse, visual injury: barley (HORVW)
[1] = tested on: durum wheat (Triticum durum L; TRZDU); assay: Postemergence herbicidal safening, greenhouse, visual injury: durum wheat; format: in vivo
Method: (§1) Evaluation of Postemergence Herbicidal Safening in Cereal Crops
(§2) Seeds of the desired test plant species were planted in Sun Gro MetroMix® 306 planting mixture, which typically has a pH of 6.0 to 6.8 and an organic matter content of about 30 percent, in plastic pots with a surface area of 103.2 square centimeters (cm^2). When required to ensure good germination and healthy plants, a fungicide treatment and/or other chemical or physical treatment was applied. The plants were grown for 7-36 days (d) in a greenhouse with an approximate 14-hour (h) photoperiod which was maintained at about 18° C. during the day and 17° C. during the night. Nutrients and water were added on a regular basis and supplemental lighting was provided with overhead metal halide 1000-Watt lamps as necessary. The plants were employed for testing when they reached the second or third true leaf stage.
(§3) Weighed amounts of esters (methyl) or salts (TEA [triethylammonium], K [potassium]) of 4-amino-3-chloro-6-(4-chloro-2-fluoro-3-methoxyphenyl)pyridine-2-carboxylic acid (Compound 1) were dissolved in a volume of 97:3 volume/volume (v/v) acetone/dimethylsulfoxide (DMSO) to obtain stock solutions. […] The concentrated stock solutions were diluted with an aqueous mixture of 1.5% v/v of Agri-dex crop oil concentrate to provide the appropriate application rates. Compound requirements are based upon a 12 mL application volume at a rate of 187 liters per hectare (L/ha). Stocks solutions of the safeners were prepared following the same procedure. Spray solutions of the safeners and experimental compound mixtures were prepared by adding the stock solutions to the appropriate amount of dilution solution to form a 12 mL spray solution with active ingredients in two-way combinations. Formulated compounds were applied to the plant material with an overhead Mandel track sprayer equipped with 8002E nozzles calibrated to deliver 187 L/ha over an application area of 0.503 square meters (m^2) at a spray height of 18 inches (43 centimeters (cm)) above average plant canopy. Control plants were sprayed in the same manner with the solvent blank.
(§4) The treated plants and control plants were placed in a greenhouse as described above and watered by sub-irrigation to prevent wash-off of the test compounds. After 20-22 d, the condition of the test plants as compared with that of the control plants was determined visually and scored on a scale of 0 to 100 percent where 0 corresponds to no injury and 100 corresponds to complete kill.
(§5) Colby's equation was used to determine the herbicidal effects expected from the mixtures (Colby, S. R. Calculation of the synergistic and antagonistic response of herbicide combinations. Weeds 1967, 15, 20-22.).
(§6) The following equation was used to calculate the expected activity of mixtures containing two active ingredients, A and B: Expected=A+B−(A×B/100)
(§7) A=observed efficacy of active ingredient A at the same concentration as used in the mixture.
(§8) B=observed efficacy of active ingredient B at the same concentration as used in the mixture.

[2] = tested on: wheat (Triticum aestivum L; TRZAW); assay: Postemergence herbicidal safening, greenhouse, visual injury: wheat (TRZAW); format: in vivo
Method: as §1, §2, §3, §4, §5, §6, §7, §8

[3] = tested on: barley (Hordeum vulgare L; HORVS); assay: Postemergence herbicidal safening, greenhouse, visual injury: barley; format: in vivo; conditions: for HORVS Ob: applied alone
Method: as §1, §2, §3, §4, §5, §6, §7, §8

[4] = tested on: wheat (Triticum aestivum L; TRZAS); assay: Postemergence herbicidal safening, greenhouse, visual injury: wheat; format: in vivo; conditions: for TRZAS Ob: applied alone
Method: as §1, §2, §3, §4, §5, §6, §7, §8

[5] = tested on: corn poppy (Papaver rhoeas L; PAPRH); assay: Postemergence herbicidal activity, greenhouse, visual injury: corn poppy; format: in vivo; conditions: for PAPRH Ob: applied alone
Method: as §1, §2, §3, §4, §5, §6, §7, §8

[6] = tested on: purple deadnettle (Lamium purpureum L; LAMPU); assay: Postemergence herbicidal activity, greenhouse, visual injury: purple deadnettle; format: in vivo; design: key: visual injury, 0–100%: 0 = no injury, 100 = complete kill
Method: as §1, §2, §3, §4, §5, §6, §7, §8

[7] = tested on: wild pansy (Viola tricolor L; VIOTR); assay: Postemergence herbicidal activity, greenhouse, visual injury: wild pansy; format: in vivo; conditions: applied alone
Method: as §1, §2, §3, §4, §5, §6, §7, §8

[8] = tested on: Russian thistle (Salsola iberica L; SASKR); assay: Postemergence herbicidal activity, greenhouse, visual injury: Russian thistle; format: in vivo; conditions: applied alone
Method: as §1, §2, §3, §4, §5, §6, §7, §8

[9] = tested on: cleavers (Galium aparine L; GALAP); assay: Postemergence herbicidal activity, greenhouse, visual injury: cleavers; format: in vivo; conditions: applied alone
Method: as §1, §2, §3, §4, §5, §6, §7, §8

[10] = tested on: chickweed (Stellaria media L; STEME); assay: Postemergence herbicidal activity, greenhouse, visual injury: chickweed; format: in vivo; conditions: applied alone
Method: as §1, §2, §3, §4, §5, §6, §7, §8

[11] = tested on: bird's-eye speedwell (Veronica persica L; VERPE); assay: Postemergence herbicidal activity, greenhouse, visual injury: bird's-eye speedwell; format: in vivo; conditions: applied alone
Method: as §1, §2, §3, §4, §5, §6, §7, §8

[12] = tested on: wild buckwheat (Polygonum convolvulus L; POLCO); assay: Postemergence herbicidal activity, greenhouse, visual injury: wild buckwheat; format: in vivo; conditions: applied alone
Method: as §1, §2, §3, §4, §5, §6, §7, §8

## O=C(O)C1=NOC(c2ccccc2)(c2ccccc2)C1 [Isoxadifen]
Barley (HORVW); safener 4.4 g/ha alone
  HORVW Ob (Observed values): 0%
Barley (HORVW); safener 8.8 g/ha alone
  HORVW Ob (Observed values): 0%
Barley (HORVW); safener 17.5 g/ha alone
  HORVW Ob (Observed values): 0%
Barley (HORVW); safener 35 g/ha alone
  HORVW Ob (Observed values): 0%
[1]; safener 4.4 g/ha alone
  TRZDU Ob (Observed values): 0%
[1]; safener 8.8 g/ha alone
  TRZDU Ob (Observed values): 0%
[1]; safener 17.5 g/ha alone
  TRZDU Ob (Observed values): 0%
[1]; safener 35 g/ha alone
  TRZDU Ob (Observed values): 0%
[2]; safener 4.4 g/ha alone
  TRZAW Ob (Observed values): 0%
[2]; safener 8.8 g/ha alone
  TRZAW Ob (Observed values): 0%
[2]; safener 17.5 g/ha alone
  TRZAW Ob (Observed values): 0%
[2]; safener 35 g/ha alone
  TRZAW Ob (Observed values): 0%
[3]; safener 4.4 g/ha alone
  HORVS Ob (Observed values): 0
[3]; safener 8.8 g/ha alone
  HORVS Ob (Observed values): 0
[3]; safener 17.5 g/ha alone
  HORVS Ob (Observed values): 0
[3]; safener 35 g/ha alone
  HORVS Ob (Observed values): 0
[4]; safener 4.4 g/ha alone
  TRZAS Ob (Observed values): 0
[4]; safener 8.8 g/ha alone
  TRZAS Ob (Observed values): 0
[4]; safener 17.5 g/ha alone
  TRZAS Ob (Observed values): 0
[4]; safener 35 g/ha alone
  TRZAS Ob (Observed values): 0
[5]; safener 4.4 g/ha alone
  PAPRH Ob (Observed values): 0
[5]; safener 8.8 g/ha alone
  PAPRH Ob (Observed values): 0
[5]; safener 17.5 g/ha alone
  PAPRH Ob (Observed values): 0
[5]; safener 35 g/ha alone
  PAPRH Ob (Observed values): 0
[6]; safener 4.4 g/ha alone
  LAMPU Ob (Observed values): 0
[6]; safener 8.8 g/ha alone
  LAMPU Ob (Observed values): 0
[6]; safener 17.5 g/ha alone
  LAMPU Ob (Observed values): 0
[6]; safener 35 g/ha alone
  LAMPU Ob (Observed values): 0

## CCOC(=O)C1=NN(c2ccc(Cl)cc2Cl)C(C)(C(=O)OCC)C1 (centres unmarked) [Mefenpyr-diethyl]
[7]; 17.5 g/ha
  VIOTR Ob: 0
[7]; 35 g/ha
  VIOTR Ob: 0
[7]; 70 g/ha
  VIOTR Ob: 0
[7]; 140 g/ha
  VIOTR Ob: 0
Barley (HORVW); safener 4.4 g/ha alone
  HORVW Ob (Observed values): 0%
Barley (HORVW); safener 8.8 g/ha alone
  HORVW Ob (Observed values): 0%
Barley (HORVW); safener 17.5 g/ha alone
  HORVW Ob (Observed values): 0%
Barley (HORVW); safener 35 g/ha alone
  HORVW Ob (Observed values): 0%
[1]; safener 4.4 g/ha alone
  TRZDU Ob (Observed values): 0%
[1]; safener 8.8 g/ha alone
  TRZDU Ob (Observed values): 0%
[1]; safener 17.5 g/ha alone
  TRZDU Ob (Observed values): 0%
[1]; safener 35 g/ha alone
  TRZDU Ob (Observed values): 0%
[8]; 17.5 g/ha
  SASKR Ob: 0
[8]; 35 g/ha
  SASKR Ob: 0
[8]; 70 g/ha
  SASKR Ob: 0
[8]; 140 g/ha
  SASKR Ob: 0
[2]; safener 4.4 g/ha alone
  TRZAW Ob (Observed values): 0%
[2]; safener 8.8 g/ha alone
  TRZAW Ob (Observed values): 0%
[2]; safener 17.5 g/ha alone
  TRZAW Ob (Observed values): 0%
[2]; safener 35 g/ha alone
  TRZAW Ob (Observed values): 0%
[3]; 17.5 g/ha
  HORVS Ob: 0%
[3]; 35 g/ha
  HORVS Ob: 0%
[3]; 70 g/ha
  HORVS Ob: 0%
[3]; 140 g/ha
  HORVS Ob: 0%
[3]; safener 4.4 g/ha alone
  HORVS Ob (Observed values): 0
[3]; safener 8.8 g/ha alone
  HORVS Ob (Observed values): 0
[3]; safener 17.5 g/ha alone
  HORVS Ob (Observed values): 0
[3]; safener 35 g/ha alone
  HORVS Ob (Observed values): 0
[4]; 17.5 g/ha
  TRZAS Ob: 0%
[4]; 35 g/ha
  TRZAS Ob: 0%
[4]; 70 g/ha
  TRZAS Ob: 0%
[4]; 140 g/ha
  TRZAS Ob: 0%
[4]; safener 4.4 g/ha alone
  TRZAS Ob (Observed values): 0
[4]; safener 8.8 g/ha alone
  TRZAS Ob (Observed values): 0
[4]; safener 17.5 g/ha alone
  TRZAS Ob (Observed values): 0
[4]; safener 35 g/ha alone
  TRZAS Ob (Observed values): 0
[5]; 17.5 g/ha
  PAPRH Ob: 0
[5]; 35 g/ha
  PAPRH Ob: 0
[5]; 70 g/ha
  PAPRH Ob: 0
[5]; 140 g/ha
  PAPRH Ob: 0
[5]; safener 4.4 g/ha alone
  PAPRH Ob (Observed values): 0
[5]; safener 8.8 g/ha alone
  PAPRH Ob (Observed values): 0
[5]; safener 17.5 g/ha alone
  PAPRH Ob (Observed values): 0
[5]; safener 35 g/ha alone
  PAPRH Ob (Observed values): 0
[6]; safener 4.4 g/ha alone
  LAMPU Ob (Observed values): 0
[6]; safener 8.8 g/ha alone
  LAMPU Ob (Observed values): 0
[6]; safener 17.5 g/ha alone
  LAMPU Ob (Observed values): 0
[6]; safener 35 g/ha alone
  LAMPU Ob (Observed values): 0
[9]; 17.5 g/ha
  GALAP Ob: 0
[9]; 35 g/ha
  GALAP Ob: 0
[9]; 70 g/ha
  GALAP Ob: 0
[9]; 140 g/ha
  GALAP Ob: 0
[10]; 17.5 g/ha
  STEME Ob: 0
[10]; 35 g/ha
  STEME Ob: 0
[10]; 70 g/ha
  STEME Ob: 0
[10]; 140 g/ha
  STEME Ob: 0
[11]; 17.5 g/ha
  VERPE Ob: 0
[11]; 35 g/ha
  VERPE Ob: 0
[11]; 70 g/ha
  VERPE Ob: 0
[11]; 140 g/ha
  VERPE Ob: 0
[12]; 17.5 g/ha
  POLCO Ob: 0
[12]; 35 g/ha
  POLCO Ob: 0
[12]; 70 g/ha
  POLCO Ob: 0
[12]; 140 g/ha
  POLCO Ob: 0
